Experiments:
Rat CYP1A1 = biological target: T1, Rat CYP1A1 (Rattus norvegicus, UniProt P00185); experiment: Turnover of fluorometric substrates by rat CYP1A1; conditions: substrate uM: Ia 2, AMMC 20, CEC 40, MFC 50, BFC 50, BQ 40, BzRes 50; 30 min; enzyme 50 nM (2.5 nM for CEC)
T1 sequence (P00185 1-524): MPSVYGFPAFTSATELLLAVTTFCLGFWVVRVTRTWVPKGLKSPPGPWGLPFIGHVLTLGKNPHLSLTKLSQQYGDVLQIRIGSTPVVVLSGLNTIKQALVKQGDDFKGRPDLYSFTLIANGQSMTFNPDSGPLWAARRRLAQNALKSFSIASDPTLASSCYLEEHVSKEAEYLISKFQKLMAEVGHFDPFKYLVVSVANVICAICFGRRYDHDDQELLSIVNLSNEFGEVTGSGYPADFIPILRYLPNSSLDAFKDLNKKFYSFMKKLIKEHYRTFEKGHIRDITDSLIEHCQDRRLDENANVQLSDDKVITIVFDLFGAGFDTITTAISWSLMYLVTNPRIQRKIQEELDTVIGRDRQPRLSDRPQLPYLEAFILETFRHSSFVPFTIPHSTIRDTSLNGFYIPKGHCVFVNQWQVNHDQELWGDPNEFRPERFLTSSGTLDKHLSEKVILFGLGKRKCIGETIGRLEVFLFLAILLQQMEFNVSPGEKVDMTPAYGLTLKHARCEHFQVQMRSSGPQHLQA

Rat CYP1A2 = biological target: T2, Rat CYP1A2 (Rattus norvegicus, UniProt P04799); experiment: Turnover of fluorometric substrates by rat CYP1A2; conditions: substrate uM: Ia 2, AMMC 20, CEC 40, MFC 50, BFC 50, BQ 40, BzRes 50; 30 min; enzyme 50 nM
T2 sequence (P04799 1-513): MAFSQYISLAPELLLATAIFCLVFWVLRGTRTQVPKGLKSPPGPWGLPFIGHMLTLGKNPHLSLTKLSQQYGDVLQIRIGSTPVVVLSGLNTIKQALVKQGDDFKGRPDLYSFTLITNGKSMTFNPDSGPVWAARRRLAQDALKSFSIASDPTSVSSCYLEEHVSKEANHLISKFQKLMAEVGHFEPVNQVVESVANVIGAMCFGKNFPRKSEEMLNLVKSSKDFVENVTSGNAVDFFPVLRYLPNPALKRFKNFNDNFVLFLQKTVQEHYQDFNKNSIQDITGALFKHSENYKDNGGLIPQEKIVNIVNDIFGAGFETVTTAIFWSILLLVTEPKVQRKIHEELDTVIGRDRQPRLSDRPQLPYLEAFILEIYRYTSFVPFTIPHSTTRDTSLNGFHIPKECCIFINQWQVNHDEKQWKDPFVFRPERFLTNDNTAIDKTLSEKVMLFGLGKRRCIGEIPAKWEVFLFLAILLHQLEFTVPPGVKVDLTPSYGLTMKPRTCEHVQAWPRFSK

Rat CYP2C6 = biological target: T3, Rat CYP2C6 (Rattus norvegicus, UniProt P05178); experiment: Turnover of fluorometric substrates by rat CYP2C6; conditions: substrate uM: Ia 2, AMMC 20, CEC 40, MFC 50, BFC 50, BQ 40, BzRes 50; 30 min; enzyme 50 nM
T3 sequence (P05178 1-490): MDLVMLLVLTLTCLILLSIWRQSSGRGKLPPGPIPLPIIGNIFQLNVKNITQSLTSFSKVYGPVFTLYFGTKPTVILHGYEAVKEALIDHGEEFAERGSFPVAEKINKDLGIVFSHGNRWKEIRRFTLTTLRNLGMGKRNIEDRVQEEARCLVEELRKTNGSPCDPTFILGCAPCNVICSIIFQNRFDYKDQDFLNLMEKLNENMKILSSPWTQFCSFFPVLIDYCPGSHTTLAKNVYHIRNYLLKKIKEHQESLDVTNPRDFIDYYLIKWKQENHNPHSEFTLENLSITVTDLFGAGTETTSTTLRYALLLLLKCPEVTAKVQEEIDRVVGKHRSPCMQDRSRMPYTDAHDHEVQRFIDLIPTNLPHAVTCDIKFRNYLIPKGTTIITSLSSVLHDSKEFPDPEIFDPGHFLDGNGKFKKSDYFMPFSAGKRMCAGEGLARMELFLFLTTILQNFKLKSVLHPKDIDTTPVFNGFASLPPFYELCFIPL

Rat CYP2D2 = biological target: T4, Rat CYP2D2 (Rattus norvegicus, UniProt P10634); experiment: Turnover of fluorometric substrates by rat CYP2D2; conditions: substrate uM: Ia 2, AMMC 20, CEC 40, MFC 50, BFC 50, BQ 40, BzRes 50; 30 min; enzyme 50 nM
T4 sequence (P10634 1-500): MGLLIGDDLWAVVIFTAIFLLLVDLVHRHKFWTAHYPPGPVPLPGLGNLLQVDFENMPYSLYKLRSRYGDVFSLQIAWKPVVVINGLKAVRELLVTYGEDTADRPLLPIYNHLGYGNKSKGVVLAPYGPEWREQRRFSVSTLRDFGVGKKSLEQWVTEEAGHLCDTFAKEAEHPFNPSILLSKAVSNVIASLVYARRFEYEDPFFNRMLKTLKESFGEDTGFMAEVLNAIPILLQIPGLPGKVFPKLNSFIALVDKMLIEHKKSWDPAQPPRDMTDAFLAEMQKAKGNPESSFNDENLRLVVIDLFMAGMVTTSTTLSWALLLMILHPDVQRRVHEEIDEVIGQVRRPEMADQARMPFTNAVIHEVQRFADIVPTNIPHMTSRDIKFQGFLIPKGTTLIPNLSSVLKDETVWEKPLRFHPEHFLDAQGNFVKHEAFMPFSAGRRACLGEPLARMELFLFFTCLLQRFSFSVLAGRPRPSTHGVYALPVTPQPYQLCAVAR

Rat CYP2C11 = biological target: T5, Rat CYP2C11 (Rattus norvegicus, UniProt P08683); experiment: Turnover of fluorometric substrates by rat CYP2C11; conditions: substrate uM: Ia 2, AMMC 20, CEC 40, MFC 50, BFC 50, BQ 40, BzRes 50; 30 min; enzyme 50 nM
T5 sequence (P08683 1-500): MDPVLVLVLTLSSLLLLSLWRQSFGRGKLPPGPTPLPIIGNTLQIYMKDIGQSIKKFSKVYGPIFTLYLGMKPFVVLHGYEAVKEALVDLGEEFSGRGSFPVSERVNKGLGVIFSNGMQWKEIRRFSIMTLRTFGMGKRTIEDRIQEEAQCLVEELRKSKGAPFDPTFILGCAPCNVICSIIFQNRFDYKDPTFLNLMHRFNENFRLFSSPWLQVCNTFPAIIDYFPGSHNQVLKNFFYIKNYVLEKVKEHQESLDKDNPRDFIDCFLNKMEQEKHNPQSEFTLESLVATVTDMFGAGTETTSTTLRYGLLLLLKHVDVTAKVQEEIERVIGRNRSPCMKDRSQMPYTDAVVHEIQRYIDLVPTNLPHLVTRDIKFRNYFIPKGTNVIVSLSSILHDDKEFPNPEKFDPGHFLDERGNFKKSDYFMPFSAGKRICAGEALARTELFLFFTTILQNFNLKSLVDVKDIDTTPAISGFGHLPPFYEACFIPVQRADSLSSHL

Row | SMILES | Turnover Numbers, CYP1A1 (Rat CYP1A1) | Turnover Numbers, CYP1A2 (Rat CYP1A2) | Turnover Numbers, CYP2C6 (Rat CYP2C6) | Turnover Numbers, CYP2D2 (Rat CYP2D2) | Turnover Numbers, CYP2C11 (Rat CYP2C11)
1 | COc1ccc2c(C(F)(F)F)cc(=O)oc2c1 [MFC, 7-Methoxy-4-trifluoromethylcoumarin] | 1.03 pmol product/min/pmol enzyme | 1.32 pmol product/min/pmol enzyme | 11.5 pmol product/min/pmol enzyme | 0.08 pmol product/min/pmol enzyme | 5.57 pmol product/min/pmol enzyme
2 | O=c1ccc2nc3ccc(OCc4ccccc4)cc3oc-2c1 [BzRes, 7-benzyloxyresorufin] | 1.35 pmol product/min/pmol enzyme | 0.62 pmol product/min/pmol enzyme | 0.02 pmol product/min/pmol enzyme |  | 0.05 pmol product/min/pmol enzyme
3 | CCOc1ccc2cc(C#N)c(=O)oc2c1 [CEC, 7-Ethoxy-3-cyanocoumarin] | 78 pmol product/min/pmol enzyme | 1.38 pmol product/min/pmol enzyme | 2.14 pmol product/min/pmol enzyme |  | 0.55 pmol product/min/pmol enzyme

Now from value to compound:

Row | Turnover Numbers, CYP1A1 (Rat CYP1A1) | Turnover Numbers, CYP1A2 (Rat CYP1A2) | Turnover Numbers, CYP2C6 (Rat CYP2C6) | Turnover Numbers, CYP2D2 (Rat CYP2D2) | Turnover Numbers, CYP2C11 (Rat CYP2C11) | SMILES
4 | 0.211 pmol product/min/pmol enzyme | 0.041 pmol product/min/pmol enzyme | 0.021 pmol product/min/pmol enzyme | 0.194 pmol product/min/pmol enzyme | 0.065 pmol product/min/pmol enzyme | O=C(OCc1ccccc1)c1ccccc1-c1c2ccc(=O)cc-2oc2cc(OCc3ccccc3)ccc12 [Compound Ia, O-Benzylfluorescein Benzyl Ester]
5 | 0.34 pmol product/min/pmol enzyme |  | 2.62 pmol product/min/pmol enzyme | 0.12 pmol product/min/pmol enzyme | 0.34 pmol product/min/pmol enzyme | O=c1cc(C(F)(F)F)c2ccc(OCc3ccccc3)cc2o1 [BFC, 7-Benzyloxy-4-trifluoromethylcoumarin]
6 | 5.7 pmol product/min/pmol enzyme | 2.3 pmol product/min/pmol enzyme | 1.9 pmol product/min/pmol enzyme | 4.4 pmol product/min/pmol enzyme |  | c1ccc(COc2ccc3cccnc3c2)cc1 [BQ, 7-Benzyloxyquinoline]

Source: patent US6420131B1, “Use of fluorescein aryl ethers in high throughput cytochrome P450 inhibition assays” (Gentest Corporation, priority 1999, dated 2002)
